Legend:
[1] = biological target: T1, VIM-2 (Pseudomonas aeruginosa, UniProt Q9K2N0); assay: in vitro meropenem hydrolysis assay ([…] nm), […] enzyme, […] ZnSO4; assay type: biochemical
T1 construct: gene blaVIM-2

[2] = biological target: T2, NDM-1 (Klebsiella pneumoniae, UniProt C7C422); assay: as above; assay type: biochemical
T2 construct: gene blaNDM-1
T2 sequence (C7C422 29-270 limits assumed): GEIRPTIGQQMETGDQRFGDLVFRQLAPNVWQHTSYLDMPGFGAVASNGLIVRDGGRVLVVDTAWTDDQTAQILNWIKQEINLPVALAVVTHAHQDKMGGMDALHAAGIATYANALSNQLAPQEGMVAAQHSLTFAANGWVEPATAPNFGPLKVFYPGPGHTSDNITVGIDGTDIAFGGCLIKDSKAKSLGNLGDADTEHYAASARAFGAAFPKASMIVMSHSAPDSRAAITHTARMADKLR

Nc1ccc(S(=O)(=O)Nc2scnc2C(=O)O)cc1 [MLLB-2201]
IC50 [1]: 14.5 µM | IC50 [2]: 1.8 µM
